Measurements: patent publication US20240025907A1, “QUINAZOLINE PAN-KRas INHIBITORS” (Mirati Therapeutics, Inc., priority 2022, published 2024)
Where two headings read alike, the source gives them in different places.

Key:
[1] = test system: KRas-mediated Phosphorylation of ERK in AsPC-1 cells; experiment: Cisbio HTRF pERK assay, AsPC-1 cells; format: cell-based; details: 3 hrs compound, read-out: Inhibition (HTRF IC50 nM) of KRas-mediated Phosphorylation of ERK, AsPC-1
[2] = test system: KRas-mediated Phosphorylation of ERK in H727 cells; experiment: Cisbio HTRF pERK assay, H727 cells; format: cell-based; details: 3 hrs compound, read-out: Inhibition (HTRF IC50 nM) of KRas-mediated Phosphorylation of ERK, H727
[3] = test system: KRas-mediated Phosphorylation of ERK in HCT116 cells; experiment: Cisbio HTRF pERK assay, HCT116 cells; format: cell-based; details: HCT116 cells, 3 hrs compound, read-out: Inhibition (HTRF IC50 nM) of KRas-mediated Phosphorylation of ERK, HCT116
[4] = test system: KRas-mediated Phosphorylation of ERK in A549 cells; experiment: Cisbio HTRF pERK assay, A549 cells; format: cell-based; details: A549 cells, 3 hrs compound, read-out: Inhibition (HTRF IC50 nM) of KRas-mediated Phosphorylation of ERK, A549
[5] = test system: KRas-mediated Phosphorylation of ERK in H460 cells; experiment: Cisbio HTRF pERK assay, H460 cells; format: cell-based; details: H460 cells, 3 hrs compound, read-out: Inhibition (HTRF IC50 nM) of KRas-mediated Phosphorylation of ERK, H460
[6] = test system: KRas-mediated Phosphorylation of ERK in H358 cells; experiment: Cisbio HTRF pERK assay, H358 cells; format: cell-based; details: H358 cells, 3 hrs compound, read-out: Inhibition (HTRF IC50 nM) of KRas-mediated Phosphorylation of ERK, H358
[7] = test system: KRas-mediated Phosphorylation of ERK in H2009 cells; experiment: Cisbio HTRF pERK assay, H2009 cells; format: cell-based; details: read-out: Inhibition (HTRF IC50 nM) of KRas-mediated Phosphorylation of ERK, H2009
[8] = test system: KRas-mediated Phosphorylation of ERK in PSN1 cells; experiment: Cisbio HTRF pERK assay, PSN1 cells; format: cell-based; details: 3 hour compound, read-out: Inhibition (HTRF IC50 nM) of KRas-mediated Phosphorylation of ERK, PSN1
Procedure: (§1) Inhibition of KRas Phosphorylation of ERK (HTRF) by Exemplary Compounds of Formula (I) • Cisbio HTRF Advanced pERK Assay Catalog #64AERPEH • Cell: MKN1, PSN1 • Procedure: • Day 1: Seed 6,000 cells/well −25 μl/well in 384-well white solid bottom plate; RPM1_10% FBS.

[9] = test system: KRas-mediated Phosphorylation of ERK in MKN1 cells; experiment: Cisbio HTRF pERK assay, MKN1 cells; format: cell-based; details: Homo sapiens, MKN-1, 3 hour compound, read-out: Inhibition (HTRF IC50 nM) of KRas-mediated Phosphorylation of ERK, MKN1
Procedure: as §1

[10] = biological target: T1, KRas^G12D (Homo sapiens, UniProt P01116, G12D); experiment: KRas TR-FRET tracer displacement binding assay, G12D; details: 60-minute incubation
T1 construct: Biotinylated KRas (corresponding to amino acids 1-169, produced at Accelegan Inc.); biotin (biotinylated); purchased Accelegan Inc
Procedure: (§2) KRas^WT, KRas^G12A, KRas^G12C, KRas^G12D, KRas^G12R, KRas^G12S, KRas^G12V, KRas^G13D, or KRas^Q61H was used in the assay.
(§3) The ability of a compound to bind to KRas was measured using a TR-FRET displacement assay. Biotinylated KRas (corresponding to amino acids 1-169, produced at Accelegan Inc.) was incubated with custom made Cy5 labelled tracer, terbium streptavidin (Cisbio Inc.) and compound (1% DMSO final) in buffer (50 mM HEPES, pH 7.5, 5 mM MgCl2, 0.005% Tween-20 and 1 mM DTT). After a 60-minute incubation at room temperature, the reaction was measured using a BMG LABTECH CLARIO star Plus via TR-FRET.

[11] = biological target: T2, KRas^G12V (Homo sapiens, UniProt P01116, G12V); experiment: KRas TR-FRET tracer displacement binding assay, G12V; details: 60-minute incubation
T2 construct: Biotinylated KRas (corresponding to amino acids 1-169, produced at Accelegan Inc.); biotin (biotinylated); purchased Accelegan Inc
Procedure: as §2, §3

[12] = biological target: T3, KRas^WT (Homo sapiens, UniProt P01116); experiment: KRas TR-FRET tracer displacement binding assay, WT; details: 60-minute incubation
T3 construct: Biotinylated KRas (corresponding to amino acids 1-169, produced at Accelegan Inc.); biotin (biotinylated); purchased Accelegan Inc
Procedure: as §2, §3

[13] = biological target: T4, KRas^G12C (Homo sapiens, UniProt P01116, G12C); experiment: KRas TR-FRET tracer displacement binding assay, G12C; details: 60-minute incubation
T4 construct: Biotinylated KRas (corresponding to amino acids 1-169, produced at Accelegan Inc.); biotin (biotinylated); purchased Accelegan Inc
Procedure: as §2, §3

[14] = biological target: T5, KRas^G12S (Homo sapiens, UniProt P01116, G12S); experiment: KRas TR-FRET tracer displacement binding assay, G12S; details: 60-minute incubation
T5 construct: Biotinylated KRas (corresponding to amino acids 1-169, produced at Accelegan Inc.); biotin (biotinylated); purchased Accelegan Inc
Procedure: as §2, §3

[15] = Homo sapiens, NCI-H2009, H2009 cells

T1 sequence (P01116 1-169 isoform P01116-2 G12D): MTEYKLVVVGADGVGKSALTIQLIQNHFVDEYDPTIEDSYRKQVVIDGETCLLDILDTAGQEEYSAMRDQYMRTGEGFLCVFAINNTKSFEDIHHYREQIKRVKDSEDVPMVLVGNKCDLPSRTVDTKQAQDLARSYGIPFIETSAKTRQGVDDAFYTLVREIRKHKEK
T5 sequence (P01116 1-169 isoform P01116-2 G12S): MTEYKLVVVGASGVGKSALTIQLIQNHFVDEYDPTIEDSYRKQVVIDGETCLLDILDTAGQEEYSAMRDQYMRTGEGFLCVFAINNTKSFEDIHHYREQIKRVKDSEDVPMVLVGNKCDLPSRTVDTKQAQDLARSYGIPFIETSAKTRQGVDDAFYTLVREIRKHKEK
T2 sequence (P01116 1-169 isoform P01116-2 G12V): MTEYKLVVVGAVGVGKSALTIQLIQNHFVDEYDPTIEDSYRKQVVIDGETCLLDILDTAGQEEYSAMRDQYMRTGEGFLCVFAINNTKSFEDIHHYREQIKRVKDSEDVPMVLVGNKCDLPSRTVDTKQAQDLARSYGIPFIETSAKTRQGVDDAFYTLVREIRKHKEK
T3 sequence (P01116 1-169 isoform P01116-2): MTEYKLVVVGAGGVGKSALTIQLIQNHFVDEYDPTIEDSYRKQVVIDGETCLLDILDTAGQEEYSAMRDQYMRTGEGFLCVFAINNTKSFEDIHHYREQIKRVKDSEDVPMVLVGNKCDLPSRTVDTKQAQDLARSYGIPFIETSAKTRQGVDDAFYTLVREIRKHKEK
T4 sequence (P01116 1-169 isoform P01116-2 G12C): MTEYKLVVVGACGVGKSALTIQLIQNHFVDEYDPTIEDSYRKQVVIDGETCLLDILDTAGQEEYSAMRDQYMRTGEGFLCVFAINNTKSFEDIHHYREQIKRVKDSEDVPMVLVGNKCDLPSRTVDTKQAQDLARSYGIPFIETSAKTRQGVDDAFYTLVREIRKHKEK

Row | Structure (SMILES) | IC50 [1] [nM] | IC50 [2] [nM] | IC50 ([3]; Homo sapiens, HCT-116, 3 h) [nM] | IC50 ([4]; Homo sapiens, A549, 3 h) [nM] | IC50 ([5]; Homo sapiens, NCI-H460, 3 h) [nM] | IC50 ([6]; Homo sapiens, NCI-H358, 3 h) [nM] | IC50 [7, 15] [nM] | IC50 ([8]; Homo sapiens, PSN1, 3 h) [nM] | IC50 [9] [nM] | IC50 [10] [nM] | IC50 [11] [nM] | IC50 [12] [nM] | IC50 [13] [nM] | IC50 [14] [nM] | IC50 [3] [nM] | IC50 [4] [nM] | IC50 [5] [nM] | IC50 [6] [nM] | IC50 ([1]; Homo sapiens, ASPC1, 3 h) [nM] | IC50 ([2]; Homo sapiens, NCI-H727, 3 h) [nM] | other results
1 | C[C@@]1(O)COCCN(c2nc(OC[C@@]34CCCN3C[C@H](F)C4)nc3c(F)c(-c4ccc(F)c5sc(N)c(C#N)c45)c(Cl)cc23)C1 (atropisomer, axis not shown; (aS)) [Example 192, 2-amino-4-((R)-6-chloro-8-fluoro-2-(((2R,7aS)-2-fluorotetrahydro-1H-pyrrolizin-7a(5H)-yl)methoxy)-4-((S)-6-hydroxy-6-methyl-1,4-oxazepan-4-yl)quinazolin-7-yl)-7-fluorobenzo[b]thiophene-3-carbonitrile] | 3 | 5 | 12 | 8 | 4 | 1 | 1 | 260 | 1 | – | – | – | – | – | – | – | – | – | – | – | –
2 | Cc1c(F)c(N)nc(-c2c(Cl)cc3c(NC(C)c4cccnc4N)nc(OC[C@@]45CCCN4C[C@H](F)C5)nc3c2F)c1C(F)(F)F (single isomer, unassigned; isomer 1) [Example 172] | 794 | 111 | – | – | – | – | – | – | – | 34 | 3 | 11 | < 2 | 3 | 841 | 111 | 182 | 15 | – | – | IC50 ([7]; H2009 cells): 8 nM; IC50 [8]: 4290 nM
3 | Cc1c(F)c(N)nc(-c2c(Cl)cc3c(NC(C)c4cccnc4N)nc(OC[C@@]45CCCN4C[C@H](F)C5)nc3c2F)c1C(F)(F)F (single isomer, unassigned; isomer 2) [Example 173] | 1890 | 252 | – | – | – | – | – | – | – | 661 | 430 | 751 | 454 | 331 | 2900 | 244 | 511 | 95 | – | – | IC50 ([7]; H2009 cells): 40 nM; IC50 [8]: > 10000 nM
4 | N#Cc1c(N)sc2c(F)ccc(-c3c(Cl)cc4c(N5CC6CCC(C5)N6)nc(OC[C@@]56CCCN5C/C(=C\F)C6)nc4c3F)c12 [Example 180, (R)-4-(4-((1R,5S)-3,8-diazabicyclo[3.2.1]octan-3-yl)-6-chloro-8-fluoro-2-(((S,Z)-2-(fluoromethylene)tetrahydro-1H-pyrrolizin-7a(5H)-yl)methoxy)quinazolin-7-yl)-2-amino-7-fluorobenzo[b]thiophene-3-carbonitrile] | 1 | 512 | – | – | – | – | 40 | 1370 | 10 | – | – | – | – | – | 72 | 139 | 81 | 54 | – | – | –
5 | CN(c1nc(OC[C@@]23CCCN2C[C@H](F)C3)nc2c(F)c(-c3ccc(F)c4sc(N)c(C#N)c34)c(Cl)cc12)[C@H]1C[C@@H]1F [Example 202, 2-amino-4-(6-chloro-8-fluoro-4-(((1S,2S)-2-fluorocyclopropyl)(methyl)amino)-2-(((2R,7aS)-2-fluorotetrahydro-1H-pyrrolizin-7a(5H)-yl)methoxy)quinazolin-7-yl)-7-fluorobenzo[b]thiophene-3-carbonitrile] | – | – | 498 | 200 | 145 | 63 | 24 | 3350 | – | – | – | – | – | – | – | – | – | – | 200 | 104 | –

More lines, main results first:

Row | IC50 [1] [nM] | IC50 [2] [nM] | IC50 ([3]; Homo sapiens, HCT-116, 3 h) [nM] | IC50 ([4]; Homo sapiens, A549, 3 h) [nM] | IC50 ([5]; Homo sapiens, NCI-H460, 3 h) [nM] | IC50 ([6]; Homo sapiens, NCI-H358, 3 h) [nM] | IC50 [7, 15] [nM] | IC50 ([8]; Homo sapiens, PSN1, 3 h) [nM] | IC50 [9] [nM] | IC50 [10] [nM] | IC50 [11] [nM] | IC50 [12] [nM] | IC50 [13] [nM] | IC50 [14] [nM] | IC50 [3] [nM] | IC50 [4] [nM] | IC50 [5] [nM] | IC50 [6] [nM] | IC50 ([1]; Homo sapiens, ASPC1, 3 h) [nM] | IC50 ([2]; Homo sapiens, NCI-H727, 3 h) [nM] | Structure (SMILES) | other results
6 | – | – | 83 | 68 | 47 | 9 | 15 | 1690 | – | 7 | < 2 | 2 | 4 | 2 | – | – | – | – | 93 | 27 | N#Cc1c(N)sc2c(F)ccc(-c3c(Cl)cc4c(N5CCC5CO)nc(OC[C@@]56CCCN5C[C@H](F)C6)nc4c3F)c12 (stereo partly drawn) [Example 209, 2-amino-4-(6-chloro-8-fluoro-2-(((2R,7aS)-2-fluorotetrahydro-1H-pyrrolizin-7a(5H)-yl)methoxy)-4-(2-(hydroxymethyl)azetidin-1-yl)quinazolin-7-yl)-7-fluorobenzo[b]thiophene-3-carbonitrile] | –
7 | – | – | 54 | 38 | 25 | 10 | 5 | 1190 | – | – | – | – | – | – | – | – | – | – | 21 | 22 | N#Cc1c(N)sc2c(F)ccc(-c3c(Cl)cc4c(N5CCCCCC5)nc(OC[C@@]56CCCN5C[C@H](F)C6)nc4c3F)c12 [Example 210, 2-amino-4-(4-(azepan-1-yl)-6-chloro-8-fluoro-2-(((2R,7aS)-2-fluorotetrahydro-1H-pyrrolizin-7a(5H)-yl)methoxy)quinazolin-7-yl)-7-fluorobenzo[b]thiophene-3-carbonitrile] | –
8 | – | – | > 10000 | > 10000 | 5060 | 982 | 4690 | > 10000 | 739 | – | – | – | – | – | – | – | – | – | > 10000 | > 10000 | N#Cc1c(N)sc2c(F)ccc(-c3c(F)cc4c(NCc5cn[nH]c5)nc(OC[C@@]56CCCN5C[C@H](F)C6)nc4c3F)c12 [Example 214, 4-(4-(((1H-pyrazol-4-yl)methyl)amino)-6,8-difluoro-2-(((2R,7aS)-2-fluorotetrahydro-1H-pyrrolizin-7a(5H)-yl)methoxy)quinazolin-7-yl)-2-amino-7-fluorobenzo[b]thiophene-3-carbonitrile] | –
9 | – | – | 566 | 720 | 365 | 57 | 80 | 5110 | – | – | – | – | – | – | – | – | – | – | 1650 | 429 | N#Cc1c(N)sc2c(F)ccc(-c3c(Cl)cc4c(NC5CS(=O)(=O)C5)nc(OC[C@@]56CCCN5C[C@H](F)C6)nc4c3F)c12 [Example 218, 2-amino-4-(6-chloro-4-((1,1-dioxidothietan-3-yl)amino)-8-fluoro-2-(((2R,7aS)-2-fluorotetrahydro-1H-pyrrolizin-7a(5H)-yl)methoxy)quinazolin-7-yl)-7-fluorobenzo[b]thiophene-3-carbonitrile] | –
